The target in this test is T1, GPR84 (Homo sapiens, UniProt Q9NQS5).
T1 construct: expressed in transfected cells; host or cells: HTLA cells (HEK293 line stably expressing a tTA-dependent luciferase reporter and a β-arrestin2-TEV fusion gene), transiently transfected with PEI
Nature of the test: PRESTO-Tango β-arrestin2 recruitment assay, GPR84 antagonistic activity. The test is classed as cell-based. The following applies: antagonist activity in the Presto-TANGO assay; inhibition of the response from the agonist ZQ-16 (100 nM); HTLA cells. The protocol: PRESTO-Tango β-arrestin recruitment assay (W.K. Kroeze et al., 2015). HTLA cells (a HEK293 cell line stably expressing a tTA-dependent luciferase reporter and a β-arrestin2-TEV fusion gene) were maintained in Dulbecco's Modified Eagle's Medium (DMEM) supplemented with 10% Fetal Bovine Serum (dFBS), 100 U/mL penicillin and 100 μg/mL streptomycin, 2 μg/mL puromycin and 100 μg/mL hygromycin B in a humidified atmosphere at 37° C. in 5% CO2. For transfection, cells were plated at 9×10^6 to 10×10^6 cells per 15-cm cell-culture dish (day 1). The following day (day 2), cells were transfected by adding 5 μg DNA and 15 μg polyethylenimine (PEI) diluted in 1 mL Opti-MEM (Reduced Serum Medium supplied by ThermoFisher). On day 3, transfected cells were transferred at 25000 cells per well in 40 μl of medium into poly-l-lysine-coated and rinsed 384-well white, clear-bottomed cell-culture plates (Greiner Bio-One). On day 4, dilutions of the ligands to be tested were prepared in 1% dFBS DMEM and 10 μL were added to each well. On day 5, 20 μl per well of Bright-Glo solution (Promega) diluted 10-fold in assay buffer (Hanks' Balanced Salt Solution [HBSS], 20 mM HEPES, 1 mM CaCl2, 1 mM MgCl2, pH adjusted to 7.4 by 5 M NaOH) was added to each well. After incubation for 20 min at room temperature, luminescence was counted in an Enspire luminescence counter at 384 nm. Results in the form of relative luminescence units (RLU) were exported into Excel spreadsheets, and GraphPad Prism was used for analysis of data. To measure constitutive activity, no ligand was added on day 4.
The GPR84 antagonistic activity of the compounds was determined using the PRESTO-Tango β-arrestin2 recruitment assay (Assay I, see assays above), from which the concentration of each compound required for 50% inhibition (IC50) of the response from the agonist ZQ-16 (100 nM) was determined. The antagonistic activity for each compound is given in Table 1 as the pIC50, which is the negative log of the IC50 value when converted to molar.
(Arrestin recruitment assays detect the binding of arrestin to an activated receptor.)

Each structure is given as a SMILES string.

T1 sequence (Q9NQS5 whole entry, the tested form may be a part): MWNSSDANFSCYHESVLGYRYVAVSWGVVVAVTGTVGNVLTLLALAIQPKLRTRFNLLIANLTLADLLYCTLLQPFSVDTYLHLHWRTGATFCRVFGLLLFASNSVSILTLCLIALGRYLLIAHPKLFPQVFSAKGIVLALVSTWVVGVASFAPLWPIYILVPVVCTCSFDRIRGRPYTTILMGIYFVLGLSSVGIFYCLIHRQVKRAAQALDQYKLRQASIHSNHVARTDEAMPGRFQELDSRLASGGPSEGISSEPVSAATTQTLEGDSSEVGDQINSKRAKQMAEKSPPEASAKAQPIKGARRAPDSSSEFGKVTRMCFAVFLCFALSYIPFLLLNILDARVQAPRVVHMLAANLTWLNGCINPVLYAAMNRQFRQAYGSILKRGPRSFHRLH

A word on the IC50: it is the concentration that inhibits the measured activity by half. High values mean weaker potency in that assay, low ones greater potency in that assay. The molecule `CCc1c(O)cc(OCC2COCCO2)nc1CCc1ccc(OCc2nc(C(=O)O)co2)cc1` (stereo not shown) [Example 48, 2-((4-(2-(6-((1,4-Dioxan-2-yl)methoxy)-3-ethyl-4-hydroxypyridin-2-yl)ethyl)phenoxy)methyl)oxazole-4-carboxylic acid] had an IC50 of 5.37 nM. This counts as single-digit nanomolar. Molecule `CCOc1ccc(CCc2nc(OCC3COCCO3)cc(O)c2CC)cn1` (stereo not shown) [Example 49, 6-((1,4-Dioxan-2-yl)methoxy)-2-(2-(6-ethoxypyridin-3-yl)ethyl)-3-ethylpyridin-4-ol] had an IC50 of 0.501 nM. For the molecule `CCOc1ncc(CCc2nc(OCC3COCCO3)cc(O)c2CC)cc1F` (stereo not shown) [Example 50, 6-((1,4-Dioxan-2-yl)methoxy)-2-(2-(6-ethoxy-5-fluoropyridin-3-yl)ethyl)-3-ethylpyridin-4-ol], the IC50 was 1.29 nM.

`CCOc1ccc(C2CC2c2nc(OCC3COCCO3)cc(O)c2CC)cc1` (stereo not shown) [Example 51, 6-((1,4-Dioxan-2-yl)methoxy)-2-(2-(4-ethoxyphenyl)cyclopropyl)-3-ethylpyridin-4-ol] had an IC50 of 87.1 nM.

In turn, `CCc1c(O)cc(OC[C@@H]2COCCO2)nc1CCc1ccc(OC)c(OC)c1` [Example 52, (S)-6-((1,4-dioxan-2-yl)methoxy)-2-(3,4-dimethoxyphenethyl)-3-ethylpyridin-4-ol] showed an IC50 of 1.26 nM. The same measure for `CCc1c(O)cc(OC[C@@H]2COCCO2)nc1CCc1ccc(OC)cc1OC` [Example 53, (S)-6-((1,4-dioxan-2-yl)methoxy)-2-(2,4-dimethoxyphenethyl)-3-ethylpyridin-4-ol]: 0.355 nM. In turn, `CCc1c(O)cc(OC[C@@H]2COCCO2)nc1CCc1ccc(OC)c(C#N)c1` [Example 54, (S)-5-(2-(6-((1,4-dioxan-2-yl)methoxy)-3-ethyl-4-hydroxypyridin-2-yl)ethyl)-2-methoxybenzonitrile] had a half-inhibitory concentration (IC50) of 1.55 nM. Regarding `CCc1c(O)cc(OC[C@@H]2COCCO2)nc1CCc1ccc(OC)cc1C#N` [Example 55, (S)-2-(2-(6-((1,4-dioxan-2-yl)methoxy)-3-ethyl-4-hydroxypyridin-2-yl)ethyl)-5-methoxybenzonitrile], the IC50 is 0.55 nM.

`CCc1c(O)cc(OC[C@@H]2COCCO2)nc1CCCCc1ccccc1` [Example 56, (S)-6-((1,4-dioxan-2-yl)methoxy)-3-ethyl-2-(4-phenylbutyl)pyridin-4-ol] gave an IC50 of 23.4 nM. The result for `CCCCc1ccc(-c2nc(OC[C@@H]3COCCO3)cc(O)c2CC)cc1` [Example 57, (S)-6-((1,4-dioxan-2-yl)methoxy)-2-(4-butylphenyl)-3-ethylpyridin-4-ol] reads 120 nM.

The values above are taken from US20250066335A1, “POLYSUBSTITUTED 4-HYDROXYPYRIDINE AND 4-HYDROXYQUINOLINE DERIVATIVES AS GPR84 ANTAGONISTS” (UNIVERSITY OF COPENHAGEN, priority 2021, published 2025).
